From PubChem BioAssay AID1963982 (Molecular Pharmacology Branch, DTP, NCI, 2024)

Tested on: 313798-341-R-J2-PDC spheroids, viability
Assay: Anticancer human tumor 313798-341-R-J2-PDC patient-derived cervical squamous cell carcinoma cell line growth inhibition [PI3K]
Settings: spheroids with HUVEC and MSC; for viability, T/C: stronger effect = lower value
How it was run: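 Viability of mixed-cell spheroids was determined after exposure to pairwise combinations, one partner being inavolisib, alpelisib, duvelisib or copanlisib. Highest tested concentration matched clinical Cmax where known and 10 microM where not, descending in half-log steps.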

[1] = curve of first compound, second compound 0.00316 µM
[2] = curve of first compound, second compound 0.01 µM
[3] = curve of first compound, second compound 0.0316 µM
[4] = curve of first compound, second compound 0.1 µM
[5] = curve of first compound, second compound 0.316 µM
[6] = curve of first compound, second compound 1 µM
[7] = second compound 0.00316 µM, first compound 0.0316 µM
[8] = second compound 0.00316 µM, first compound 0.1 µM
[9] = second compound 0.01 µM, first compound 0.0316 µM
[10] = second compound 0.01 µM, first compound 0.1 µM
[11] = second compound 0.0316 µM, first compound 0.0316 µM
[12] = second compound 0.0316 µM, first compound 0.1 µM
[13] = second compound 0.1 µM, first compound 0.0316 µM
[14] = second compound 0.1 µM, first compound 0.1 µM
[15] = second compound 0.316 µM, first compound 0.0316 µM
[16] = second compound 0.316 µM, first compound 0.1 µM
[17] = second compound 1 µM, first compound 0.0316 µM
[18] = second compound 1 µM, first compound 0.1 µM
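Also: spheroids exposed to compounds for seven days.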
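For viability, T/C in this document: 100% = DMSO vehicle control viability.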

CC1(C)CCC(CN2CCN(c3ccc(C(=O)NS(=O)(=O)c4ccc(NCC5CCOCC5)c([N+](=O)[O-])c4)c(Oc4cnc5[nH]ccc5c4)c3)CC2)=C(c2ccc(Cl)cc2)C1 + CC(Nc1ccc2c(c1)OCCn1cc(N3C(=O)OCC3C(F)F)nc1-2)C(N)=O
IC50 [1]: 5510 nM | IC50 [2]: 5660 nM | IC50 [3]: 5410 nM | IC50 [4]: 4710 nM | IC50 [5]: 2190 nM | IC50 [6]: 609 nM | viability, T/C [7]: 93.1% | viability, T/C [8]: 92.4% | viability, T/C (second compound 0.00316 µM, first compound 0.316 µM): 95.5% | viability, T/C (second compound 0.00316 µM, first compound 1 µM): 89.4% | viability, T/C (second compound 0.00316 µM, first compound 3.16 µM): 81.3% | viability, T/C (second compound 0.00316 µM, first compound 10 µM): 16.9% | viability, T/C [9]: 100% | viability, T/C [10]: 93.2% | viability, T/C (second compound 0.01 µM, first compound 0.316 µM): 98.5% | viability, T/C (second compound 0.01 µM, first compound 1 µM): 90.7% | viability, T/C (second compound 0.01 µM, first compound 3.16 µM): 84.2% | viability, T/C (second compound 0.01 µM, first compound 10 µM): 16.5% | viability, T/C [11]: 92.6% | viability, T/C [12]: 86.3% | viability, T/C (second compound 0.0316 µM, first compound 0.316 µM): 89.5% | viability, T/C (second compound 0.0316 µM, first compound 1 µM): 93.2% | viability, T/C (second compound 0.0316 µM, first compound 3.16 µM): 78.3% | viability, T/C (second compound 0.0316 µM, first compound 10 µM): 17% | viability, T/C [13]: 94.1% | viability, T/C [14]: 102% | viability, T/C (second compound 0.1 µM, first compound 0.316 µM): 90.4% | viability, T/C (second compound 0.1 µM, first compound 1 µM): 90.9% | viability, T/C (second compound 0.1 µM, first compound 3.16 µM): 67.2% | viability, T/C (second compound 0.1 µM, first compound 10 µM): 17% | viability, T/C [15]: 79.7% | viability, T/C [16]: 69.7% | viability, T/C (second compound 0.316 µM, first compound 0.316 µM): 78.2% | viability, T/C (second compound 0.316 µM, first compound 1 µM): 60.1% | viability, T/C (second compound 0.316 µM, first compound 3.16 µM): 44.8% | viability, T/C (second compound 0.316 µM, first compound 10 µM): 16.5% | viability, T/C [17]: 51.6% | viability, T/C [18]: 49.7% | viability, T/C (second compound 1 µM, first compound 0.316 µM): 51.8% | viability, T/C (second compound 1 µM, first compound 1 µM): 49.2% | viability, T/C (second compound 1 µM, first compound 3.16 µM): 35.8% | viability, T/C (second compound 1 µM, first compound 10 µM): 14%

CC(=O)c1c(C)c2cnc(Nc3ccc(N4CCNCC4)cn3)nc2n(C2CCCC2)c1=O + CC(Nc1ccc2c(c1)OCCn1cc(N3C(=O)OCC3C(F)F)nc1-2)C(N)=O
IC50 [1]: > 100 nM | IC50 [2]: > 100 nM | IC50 [3]: > 100 nM | IC50 [4]: > 100 nM | IC50 [5]: > 100 nM | IC50 [6]: > 100 nM | viability, T/C (second compound 0.00316 µM, first compound 0.000316 µM): 98.7% | viability, T/C (second compound 0.00316 µM, first compound 0.001 µM): 97.9% | viability, T/C (second compound 0.00316 µM, first compound 0.00316 µM): 107% | viability, T/C (second compound 0.00316 µM, first compound 0.01 µM): 102% | viability, T/C [7]: 110% | viability, T/C [8]: 102% | viability, T/C (second compound 0.01 µM, first compound 0.000316 µM): 94.2% | viability, T/C (second compound 0.01 µM, first compound 0.001 µM): 100% | viability, T/C (second compound 0.01 µM, first compound 0.00316 µM): 113% | viability, T/C (second compound 0.01 µM, first compound 0.01 µM): 98.5% | viability, T/C [9]: 124% | viability, T/C [10]: 99.3% | viability, T/C (second compound 0.0316 µM, first compound 0.000316 µM): 105% | viability, T/C (second compound 0.0316 µM, first compound 0.001 µM): 114% | viability, T/C (second compound 0.0316 µM, first compound 0.00316 µM): 108% | viability, T/C (second compound 0.0316 µM, first compound 0.01 µM): 110% | viability, T/C [11]: 103% | viability, T/C [12]: 103% | viability, T/C (second compound 0.1 µM, first compound 0.000316 µM): 108% | viability, T/C (second compound 0.1 µM, first compound 0.001 µM): 102% | viability, T/C (second compound 0.1 µM, first compound 0.00316 µM): 102% | viability, T/C (second compound 0.1 µM, first compound 0.01 µM): 110% | viability, T/C [13]: 103% | viability, T/C [14]: 113% | viability, T/C (second compound 0.316 µM, first compound 0.000316 µM): 82.8% | viability, T/C (second compound 0.316 µM, first compound 0.001 µM): 79.5% | viability, T/C (second compound 0.316 µM, first compound 0.00316 µM): 79.4% | viability, T/C (second compound 0.316 µM, first compound 0.01 µM): 86.1% | viability, T/C [15]: 83.8% | viability, T/C [16]: 90.6% | viability, T/C (second compound 1 µM, first compound 0.000316 µM): 60.8% | viability, T/C (second compound 1 µM, first compound 0.001 µM): 57.5% | viability, T/C (second compound 1 µM, first compound 0.00316 µM): 58.3% | viability, T/C (second compound 1 µM, first compound 0.01 µM): 55.4% | viability, T/C [17]: 61.6% | viability, T/C [18]: 56.5%

CC(C)NCC(C(=O)N1CCN(c2ncnc3c2C(C)CC3O)CC1)c1ccc(Cl)cc1 (configuration not stated)
viability, T/C (compound 0.0316 µM): 97.6% [middle of 4 runs] | viability, T/C (compound 0.1 µM): 96.4% [middle of 4 runs] | viability, T/C (compound 0.316 µM): 92.8% [middle of 4 runs] | viability, T/C (compound 1 µM): 65.8% [middle of 4 runs] | viability, T/C (compound 3.16 µM): 41.6% [middle of 4 runs] | viability, T/C (compound 10 µM): 31.5% [middle of 4 runs] | IC50 (curve of compound): 2 µM [middle of 4 runs]

CCN1CCN(Cc2ccc(Nc3ncc(F)c(-c4cc(F)c5nc(C)n(C(C)C)c5c4)n3)nc2)CC1
viability, T/C (compound 0.01 µM): 99.5% [middle of 4 runs] | viability, T/C (compound 0.0316 µM): 103% [middle of 4 runs] | viability, T/C (compound 0.1 µM): 102% [middle of 4 runs] | viability, T/C (compound 0.316 µM): 120% [middle of 4 runs] | viability, T/C (compound 1 µM): 122% [middle of 4 runs] | IC50 (curve of compound): > 1000 nM
